Measurements from article PMC8406801, “Naringenin Inhibits Platelet Activation and Arterial Thrombosis Through Inhibition of Phosphoinositide 3-Kinase and Cyclic Nucleotide Signaling” (Frontiers in Pharmacology, 2021).
Where “and” joins values, the source holds several entries; their conditions need not be identical. Identical values can stand only once.

Assays:
[1] = system: carotid arterial thrombus; experiment: FeCl3-induced carotid arterial thrombus model in rats; assay type: in vivo, rat; conditions: for Occlusion time: 10% FeCl3, single animals, no occlusion within 20 min recorded as 20 min
Experimental: To determine the effects of naringenin on thrombogenesis, a FeCl3-induced carotid arterial thrombus model was performed as reported previously with some modifications ([Eckly et al., 2011]). […] The rats were anaesthetized using 1% pentobarbital sodium salt and fixed supinely after the last administration. The left carotid artery was exposed and thrombosis was induced by applying a Whatman filter paper (5 mm × 1 mm) saturated with 10% (w/v) FeCl3 on the top of the left carotid artery for 5 min. […] Time to occlusion of the carotid artery was defined as a blood flow of 0 ml/min for 3 min. […] At the end of the experiment, the left carotid artery was dissected. A haematoxylin and eosin stain was performed on the artery.

cGMP = experiment: Measurement of cGMP in washed platelets (ELISA); assay type: cell-based, rat; conditions: single replicates
Experimental: Washed platelets were preincubated with vehicle or various concentrations of naringenin in the presence of 2 mM CaCl2 at 37°C for 5 min and then stimulated with ADP (10 μM) for 5 min for platelet aggregation. The reaction was terminated by adding EDTA (10 mM). The platelets were boiled for 5 min at 100 °C followed by centrifugation at 13,000 × g for 5 min cAMP and cGMP levels in the supernatant were measured using cAMP or cGMP enzyme immunoassay kits (Cayman Chemicals, Ann Arbor, MI, United States).
FIGURE 6 Naringenin elevates platelet cGMP levels and inhibits phosphodiesterase activity. The levels of cAMP (A) and cGMP (B) in washed platelets preincubated with vehicle or naringenin (100, 200, 400, and 800 μmol/L) were determined after stimulation with ADP (10 μmol/L) using ELISA kits. Similarly, the levels of cAMP (C) and cGMP (D) were determined in resting platelets incubated with naringenin (200, 400, and 800 μmol/L) or vehicle for 5 min. R represents the levels of cAMP or cGMP in resting platelets. Data are expressed as means ± SD (n = 4). *p < 0.05, ***p < 0.001 compared with the vehicle control group. The effects of naringenin on phosphodiesterase activity were measured by HPLC on the hydrolysis of cAMP (E) and cGMP (F). The level of phosphodiesterase activity obtained with vehicle control (0 μM) was taken as 100%. Data are expressed as means ± SD (n = 3). *p < 0.05, ***p < 0.001 compared with the vehicle control group.

[2] = system: Akt Thr308 phosphorylation; experiment: Immunoblotting of phospho-Akt (Thr308) in ADP-stimulated washed platelets; assay type: cell-based, rat; conditions: ADP 10 μmol/L, single replicates; for p-Akt Thr308 / t-Akt: raw data
Experimental: For in vitro platelet aggregation, aliquots of washed platelets were preincubated with vehicle or various concentrations of naringenin for 5 min and stimulated with ADP (10 μmol/L) under stirring at 37°C for 5 min. For ex vivo platelet aggregation, PRP was incubated at 37°C for 5 min and stimulated with ADP (5 μmol/L) under stirring at 37 °C. The platelet aggregation was terminated by adding ethylenediaminetetraacetic acid (EDTA; 10 mM). Total protein was prepared using RIPA lysis buffer and protein content was determined by bicinchoninic acid (BCA) protein assay kit. Equal amounts of platelet proteins (30 μg) were separated on 10% SDS polyacrylamide gel electrophoresis (SDS-PAGE) and then transferred to poly vinylidene difluoride (PVDF) membranes and subjected to western blot. Blots were blocked with TBS-Tween 20 containing 5% BSA and probed with primary antibodies diluted in blocking solution at 4°C overnight followed by incubation with the corresponding HRP secondary antibodies. The protein bands were visualized using enhanced chemiluminescence (ECL).
FIGURE 4 Naringenin inhibits PI3K-mediated signaling in ADP-induced platelets. Washed rat platelets were preincubated without or with naringenin at 37°C for 5 min, and then stimulated with ADP (10 μmol/L) under stirring for 5 min. Platelet proteins were then extracted and analyzed by immunoblotting using PI3Kp110β antibody (A) and phospho-specific antibodies such as Akt^Ser473 (B), Akt^Thr308 (C), ERK1/2^Thr202/Tyr204 (D) and GSK3β^Ser9 (E). Total level of GAPDH was measured on each sample as a loading control. The blots shown are representative of three separate experiments. The relative protein expression levels were quantified by ImageJ 1.47v software. The level of relative protein expression obtained with vehicle control (0 μM) was taken as 1. R represents the level of relative protein expression in resting platelets. Data are expressed as means ± SD (n = 3). *p < 0.05, **p < 0.01, ***p < 0.001 compared with the vehicle control group.

washed rat platelets = experiment: ADP (10 μM)-induced aggregation of washed rat platelets; assay type: cell-based; conditions: H89+Naringenin (200 μM)+ADP (10 μM); Figure 7E
PRP of treated rats = experiment: Ex vivo ADP (5 μM)-induced platelet aggregation after oral dosing; assay type: in vivo, rat; conditions: for Aggregation (%): ex vivo, Figure 8A; for ADP-induced platelet aggregation ex vivo: rats, ADP 5 μM, mean ± SD, n = 6, vehicle 63.2 ± 3.6
Experimental: Male SD rats were randomly divided into 5 groups with 6 rats in each group. […] Sixty minutes after the last sample treatment, blood was drawn from the abdominal aorta of rats into the siliconized vacutainers containing 1:9 (v/v) 3.8% sodium citrate. The collected blood was centrifuged at 100 × g for 10 min at room temperature to obtain PRP. […] The platelet counts of PRP were adjusted to 4×10^8 cells/mL using PPP. PRP was incubated for 5 min at 37°C and then stimulated by ADP (5 μM). The maximum platelet aggregation rate was determined as mentioned above.

PRP = experiment: Clot retraction; assay type: cell-based, rat; conditions: PRP, 200, 400, and 800 μM, thrombin 1 U/mL, 15 min
Experimental: PRP was incubated with vehicle or different concentrations of naringenin for 10 min at 37°C. Clot retraction was initiated by adding fibrinogen (400 μg/ml) and thrombin (1 U/mL), and allowed to proceed at 37°C. Images were taken 15 min later.

## O=C1C[C@@H](c2ccc(O)cc2)Oc2cc(O)cc(O)c21 [Naringenin]
[1]; naringenin pretreatment, 10% FeCl3
  H&E-stained carotid artery: thrombus formation and vascular endothelial injury: diminish thrombus formation and protect against vascular endothelial injury
[1]; oral 200 mg/kg for 7 days, 200 mg/kg
  Occlusion time: 7.5 min and 11.3 min and 8.5 min and 8.0 min and 9.5 min and 10.3 min
[1]; oral 400 mg/kg for 7 days, 400 mg/kg
  Occlusion time: 11.0 min and 10.5 min and 13.0 min and 14.0 min and 15.0 min
[1]; oral 800 mg/kg for 7 days
  10% FeCl3-thrombus formation (time to vessel occlusion): markedly attenuated
[1]; oral 800 mg/kg for 7 days, 800 mg/kg
  Occlusion time: 13.3 min and 15.3 min and 20.0 min and 18.0 min
[1]; oral 200 and 400 mg/kg for 7 days
  10% FeCl3-thrombus formation (time to vessel occlusion): less inhibition
cGMP; ADP 10 μmol/L-stimulated platelets, 100 μM
  cGMP release: 24.01 pmol/mL and 25.36 pmol/mL and 20.40 pmol/mL and 17.36 pmol/mL
cGMP; ADP 10 μmol/L-stimulated platelets, 200 μM
  cGMP release: 33.37 pmol/mL and 25.13 pmol/mL and 28.27 pmol/mL and 30.16 pmol/mL
cGMP; ADP 10 μmol/L-stimulated platelets, 400 μM
  cGMP release: 35.44 pmol/mL and 31.24 pmol/mL and 34.51 pmol/mL and 37.74 pmol/mL
cGMP; ADP 10 μmol/L-stimulated platelets, 800 μM
  cGMP release: 43.44 pmol/mL and 33.82 pmol/mL and 49.35 pmol/mL and 41.72 pmol/mL
cGMP; resting platelets, 200 μM, 5 min
  cGMP release: 32.45 pmol/mL and 25.29 pmol/mL and 28.34 pmol/mL and 23.70 pmol/mL
cGMP; resting platelets, 400 μM, 5 min
  cGMP release: 30.89 pmol/mL and 30.12 pmol/mL and 36.90 pmol/mL and 24.38 pmol/mL
cGMP; resting platelets, 800 μM, 5 min
  cGMP release: 36.72 pmol/mL and 44.35 pmol/mL and 55.79 pmol/mL and 49.00 pmol/mL
[2]; 100 μM
  p-Akt Thr308 / t-Akt: 0.1089 and 0.0807 and 0.1359
  p-Akt Thr308 / t-Akt (Fold to ADP only): 0.3238 Fold to ADP only and 0.2400 Fold to ADP only and 0.4039 Fold to ADP only
[2]; 200 μM
  p-Akt Thr308 / t-Akt: 0.0912 and 0.0481 and 0.0944
  p-Akt Thr308 / t-Akt (Fold to ADP only): 0.2711 Fold to ADP only and 0.1429 Fold to ADP only and 0.2806 Fold to ADP only
[2]; 400 μM
  p-Akt Thr308 / t-Akt: 0.0712 and 0.0237 and 0.0830
  p-Akt Thr308 / t-Akt (Fold to ADP only): 0.2116 Fold to ADP only and 0.0703 Fold to ADP only and 0.2468 Fold to ADP only
[2]; 800 μM
  p-Akt Thr308 / t-Akt: 0.0216 and 0.0199 and 0.0438
  p-Akt Thr308 / t-Akt (Fold to ADP only): 0.0641 Fold to ADP only and 0.0591 Fold to ADP only and 0.1303 Fold to ADP only
Washed rat platelets
  Aggregation (%): 25.0% and 17.3% and 32.6% and 33.0% and 28.0% and 21.0%
PRP of treated rats; naringenin 200mg/kg
  Aggregation (%): 44.3% and 43.6% and 49.2% and 46.7% and 39.1% and 43%
PRP of treated rats; naringenin 400mg/kg
  Aggregation (%): 34.4% and 37.3% and 35.4% and 28% and 25.8% and 22.9%
PRP of treated rats; naringenin 800mg/kg
  Aggregation (%): 12.7% and 17.8% and 16.5% and 21.5% and 19.3% and 11.6%
PRP of treated rats; oral 200 mg/kg once a day for 7 days
  ADP-induced platelet aggregation ex vivo: 44.3 ± 3.4%
PRP of treated rats; oral 400 mg/kg once a day for 7 days
  ADP-induced platelet aggregation ex vivo: 30.6 ± 5.9%
PRP of treated rats; oral 800 mg/kg once a day for 7 days
  ADP-induced platelet aggregation ex vivo: 16.6 ± 3.8%
PRP
  clot retraction: significantly reduced
